Structures are written as SMILES. pIC50: −log10 of the molar value. Where two headings read alike, the source gives them in different places.

For series [1] the following is noted: cited from earlier work.
For series [2], the target named is T1, α7 nicotinic acetylcholine receptor (Rattus norvegicus, UniProt Q05941).
T1 construct: expressed in transfected cells; host or cells: KXa7R1 cell line (HEK293)
The note with it: cited from earlier work.

The test system of series [3] is Treatment Resistant Depression (TRD). Kind of series: Example 5 pilot study: combined subcutaneous/IV and oral ketamine in TRD patients. The format is in vivo, human. The conditions noted are these: for mean MADRS reduction: TRD patients. The protocol: Six patients diagnosed with Treatment Resistant Depression (TRD) received a combined ketamine treatment as outlined below. Their mean age was 53.1 (SD: 9.3). Five of the patients had previously attempted suicide and been admitted to a psychiatric unit. Three patients had received electroconvulsive therapy (ECT).
Five of the patients received oral ketamine of dose range 120-240 mg, (for example three to six capsules of 40 mg/day as described herein), once a week, four days after ketamine subcutaneous (0.5 mg-1.0 mg/kg) was administered once a week.
One patient received ketamine intravenously once a week and oral ketamine twice a week of dose 240 mg (for example, six capsules of 40 mg/day as described herein) each time.
The patients received on average 30.8 weeks (SD:7.7) ketamine subcutaneous-oral treatment and 10.6 weeks (SD: 6.7) ketamine IV-oral treatment.
This pilot study was conducted to explore the safety, tolerability, and potential clinical effectiveness of a treatment with repeated, low-dose oral ketamine capsules.

Series [4] concerns depression. The note with it: oral, 2019 systematic review; cited from earlier work.
For series [5], the system named is Major Depression Disorder (MDD) and Treatment-resistant depression (TRD). The note with it: single IV administration, subanaesthetic dose 0.5 mg/kg; cited from earlier work.
For series [6], the system named is depressive disorder patients. Kind of series: Example 6: subcut/IV ketamine with supplemental oral dose, then oral only. The format is in vivo, human. As to the method:
Patients (n=12 patients) were administered a ketamine-based treatment comprising a subcut/IV ketamine dose with a supplemental oral dose (as described herein).

For series [7], the system named is mice. The conditions noted are these: cited from earlier work.

T1 sequence (Q05941 23-502): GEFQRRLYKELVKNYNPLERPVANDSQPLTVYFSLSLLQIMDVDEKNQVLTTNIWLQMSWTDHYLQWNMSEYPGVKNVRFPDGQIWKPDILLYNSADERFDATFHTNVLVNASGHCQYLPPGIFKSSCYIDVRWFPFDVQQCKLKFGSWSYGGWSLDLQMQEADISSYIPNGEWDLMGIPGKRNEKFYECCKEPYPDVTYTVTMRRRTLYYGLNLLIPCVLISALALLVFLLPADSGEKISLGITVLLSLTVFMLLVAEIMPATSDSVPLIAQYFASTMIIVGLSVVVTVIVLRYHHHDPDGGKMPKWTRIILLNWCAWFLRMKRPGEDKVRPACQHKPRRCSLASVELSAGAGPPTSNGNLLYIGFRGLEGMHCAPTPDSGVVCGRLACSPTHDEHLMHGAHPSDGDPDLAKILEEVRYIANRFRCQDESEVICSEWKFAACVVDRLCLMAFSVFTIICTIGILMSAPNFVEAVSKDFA

As to `NC1(c2ccccc2Cl)CCCCC1=O` (stereo not shown) [norketamine], the “plasma levels of metabolite relative to ketamine” value in series [1] (following oral administration of ketamine) is “three times higher than ketamine”. In series [2] (KXa7R1 cell line), the “potency as negative allosteric modulator” value is “subanaesthetic and nanomolar potencies”.
On to `NC1(c2ccccc2Cl)CCCC(O)C1=O` (stereo not shown) [hydroxynorketamine], for which, in series [2] (KXa7R1 cell line), the “potency as negative allosteric modulator” value is “subanaesthetic and nanomolar potencies”.
`CNC1(c2ccccc2Cl)CCCCC1=O` (stereo not shown) [ketamine, Ketamine]: the “response and tolerability of the treatment regimens” value in series [3] (after 45 to 75 minutes after dosing) is “good response and tolerability in all patients”. Also, the “mean MADRS reduction” value in series [3] (between first and last treatment, subcutaneous-oral ketamine treatment) is recorded as −5.7 (SD: 11.0). For the same compound, in series [3] (intravenous-oral ketamine treatment), the “mean MADRS reduction” value is −5.7 (SD: 10.0). Besides, the “duration of significant improvement of cognition” value in series [3] (one patient, ketamine IV once a week and oral ketamine twice a week 240 mg) is 24 to 36 h. Further, the “severity of adverse events” value in series [3] (repeated, low-dose oral ketamine capsules) was “Most adverse events were moderate and self-limiting”. Moreover, in series [3] (six TRD patients), the “ketamine cravings or urge to use beyond the prescribed period” value is recorded as “No participant reported ketamine cravings”; the “onset of moderate discomforts or moderate increase of pre-existing discomforts, reports” value was determined as 32 times; the “positive effects (reduction of suicidal thoughts, improved mood, cognition, increased energy)” value was “Most of the participants reported positive effects”; the “premature discontinuation of treatment” value was “none of the participants discontinued treatment prematurely”. Also, in series [3] (six TRD patients), the serious side effects entry is reported as “No serious side effects occurred” and the “tolerability of treatment with oral ketamine” value is reported as “well-tolerated”. In addition, in series [4], the antidepressant effects entry is “significant antidepressant effects” and the tolerability entry is listed as “good overall tolerability”. Moreover, in series [5], the “duration of antidepressant effect” value is 4 to 7 days and the “time to antidepressant action” value is at most 24 h. For the same compound, the Bioavailability in series [1] (intranasally) is reported as 8-50%. The “time to peak plasma concentrations” value in series [1] (intravenously) is recorded as “within a minute”. Further, the Bioavailability in series [1] (oral route) was 17-20%. The “time to peak plasma concentrations” value in series [1] (orally) is 30 min. In addition, the Bioavailability result in series [1] (rectally) is recorded as “up to 30%”. Moreover, the Bioavailability entry in series [1] (sublingually) is on record as “up to 30%”. Further, the “activity at the same concentrations” value in series [2] (KXa7R1 cell line, <1 μM) was “inactive”. For the same compound, the “response to oral ketamine after stopping initial IV or subcutaneous ketamine treatment” value in series [6] (especially oral twice a week at 160-240 mg) is “respond very well”. Besides, in series [6] (n=12 patients, oral only), the “remission levels after switch to oral only treatment” value is “maintained their remission levels at the same level as when administered the combination treatment”. In series [6] (n=12 patients, subcut/IV ketamine dose with supplemental oral dose), the “remission via MADRS scores” value was about 50%.
Take `N[C@@]1(c2ccccc2Cl)CCC[C@@H](O)C1=O` [(2R,6R)-HNK]: the antidepressant-like effects entry in series [7] is reported as “ketamine-type antidepressant-like effects”.
For the compound `NC1(c2ccccc2Cl)CCC=CC1=O` (stereo not shown) [dehydronorketamine], the pIC50 (usually −log10 of the IC50, conventionally taken in molar units) in series [2] (KXa7R1 cell line (HEK293 cells transfected with rat nicotinic acetylcholine receptor genes)) was 7.26. For the same compound, the “potency as negative allosteric modulator” value in series [2] (KXa7R1 cell line) was “subanaesthetic and nanomolar potencies”.
